The conditions of series [1]: HFIP stock, 5 mg/ml. The procedure: Determination of water percentage in the gel was done by washing a freshly formed hydrogel with water five times, each time for 15 minutes, followed by weighing the gel, lyophilizing it and weighing the remaining peptide aggregate.
For series [2] the following is noted: for G' (storage modulus): at 1 Hz. The procedure:
Rheological measurements were performed on AR 2000 controlled stress rheometer (TA Instruments Ltd, Great Britain) operated in cone-plate mode (cone angles 1 and 4 with diameters of 60 and 40 mm, respectively). Small-amplitude oscillatory shear experiments (0.1-10 Hz) were performed within the linear viscoelastic limit. Frequency scans were performed at the lowest stress possible to prevent damage to the sample. The linearity of response was monitored continuously to ascertain linear viscoelasticity.
To study the biomechanical characteristics of the novel hydrogel, rheology measurements were performed.

The subject of series [3] is Chinese Hamster Ovary (CHO) cells. In words: in vitro. The procedure:
(§1) For cell growth in vitro experiments Chinese Hamster Ovary (CHO) cells were grown in Dulbecco's Modified Eagle Medium (DMEM) supplemented with 10% Fetal Calf Serum, 100 U/ml penicillin, 100 U/ml streptomycin and 2 mmol/liter L-glutamine (all from Beit Haemek, Israel). Cells were maintained at 37° C. in a humidified atmosphere containing 5% CO2. Sub-confluent cells were harvested by trypsinization, counted and diluted in the cells media to 1×10^5 cells/ml. The gel was washed three times with 0.5 ml water for 30 minutes at a time and was then left overnight in 0.5 ml DMEM. The DMEM was thereafter removed and 500 μl of CHO cells (5×10^4 cells) were added over the hydrogel. After a 24 hour incubation period at 37° C. the viability of the cells was determined using a MTT (3-(4,5-dimethylthiazolyl-2)-2,5-diphenyltetrazolium bromide) assay [Nowak et al., Nature 417, 424 (2002)].
(§2) In order to exploit whether the peptide-based hydrogel described herein can serve as a scaffold for tissue engineering applications, its biocompatibility was examined using cellular in vitro experiments. Chinese Hamster Ovary (CHO) cells were suspended above the hydrogel after its formation in a […]. After a one-day incubation period the cells were analyzed for viability.

The next series is described as follows: in vitro. The following applies: CHO cells seeded on the peptide hydrogel. The protocol:
as §1, §2

For series [4] the following is noted: cited from earlier work.
[5] abbreviates: CHO cells on hydrogel from HFIP stock, one-day incubation.

Read-outs that look alike come from different tables or passages of the source. Where a SMILES comes first, the peptide text is derived from it. The star is where a group is joined. Fmoc = O=C(OCC1c2ccccc2-c2ccccc21)* A value given as a limit tells only on which side of the number the result lay.

The term viability denotes a read-out of living cells in per cent, often relative to untreated cells.

Take `O=C(N[C@@H](Cc1ccccc1)C(=O)N[C@@H](Cc1ccccc1)C(=O)O)OCC1c2ccccc2-c2ccccc21` [Fmoc-Phe-Phe, Fmoc-diphenylalanine] (Fmoc-Phe-Phe-OH): in series [1], the hydrogel water content entry was “greater than 99%”. Further, the “storage modulus G' excess over loss modulus G''” value in series [2] (HFIP stock, final concentration 5 mg/ml (FIG. 3a)) is “about one order of magnitude”. Also, the “G' (storage modulus)” value was “about 2×10^4 Pa” in series [2] (peptide concentration 5 mg/ml, solvent not stated); 1,000 Pa in series [2] (peptide final concentration 1 mg/ml, stock solution solvent DMSO); “about 2×10^3 Pa” in series [2] (peptide final concentration 2 mg/ml, acetone stock solution); 10,000 Pa in series [2] (peptide final concentration 5 mg/ml, stock solution solvent HFIP); “about 10^4 Pa” in series [2] (peptide final concentration 5 mg/ml, stock solution solvent HFIP, listed as Fmoc-diphenylalanine); 10,000 Pa in series [2] (peptide final concentration 5 mg/ml, stock solution solvent acetone). Moreover, the “G' (storage modulus)” value in series [2] (peptide final concentration 10 mg/ml, acetone stock solution (FIG. 3c)) is on record as “about 2×10^4 Pa”. In addition, in series [2] (versus hydrogels formed without chemical cross linking), the “G' relative to that reported for other self-assembled peptide hydrogels” value is recorded as 200 fold. Besides, in series [3] (setting [5]), the cell morphology entry is on record as “normal cell morphology”. Moreover, the rate of proliferation entry in series [3] (setting [5]) is “normal rate of proliferation”. Further, the “cell growth on hydrogel compared with poly lysine” value in series [3] (CHO cells, hydrogel from DMSO stock, final DMSO concentration 1%) is reported as “effective matrix for cell growth”. For the same compound, the viability at 24 h in the series “in vitro” is greater than 80%.
Take “[COCH3]-RADARADARADARADA-[CONH2] [RADA16 (Puramatrix)]”: the “G' (storage modulus)” value in series [4] (5 mg/ml, Tris HCl buffer, at 1 Hz, reported value) is recorded as 50 Pa; in series [4] (5 mg/ml, Tris HCl buffer, at 1 Hz, reported value, listed as PuraMatrix gel), “about 50 Pa”; in series [4] (at 1 Hz frequency, concentration not given), “about 50 Pa”.

The record behind these values is US10004828B2, “Self-assembled Fmoc-ff hydrogels” (Romat at Tel-Aviv University Ltd., priority 2005, dated 2018).
